In data set [1] the test system is human colon carcinoma CX-1. The experiment in a line: Anti-human colon carcinoma CX-1 activity in nude mice, tumor inhibition. As to conditions: Mus musculus, ip, 24 h. Format: in vivo, human colon carcinoma in Swiss nu/nu mice. The text has this: Human colon carcinoma cell line CX-1 has been chosen by the National Cancer Institute as a mode for cancer drug screening (NCI Protocol 3C2H2). It was established in culture from the surgical explant of the primary colon adenocarcinoma of a person with no previous chemotherapy. The cultured CX-1 cells, upon subcutaneous injection, can grow readily in nude mice as a moderately- to well-differentiated human colon carcinoma. CEA is expressed as expected for differentiated colon carcinoma cells. Abundant keratin, consistent with epithelial origin, is present. Increased uptake and prolonged retention of delocalized lipophilic cations are observed.
Swiss nu/nu mice obtained from Taconic Farm were housed in a pathogen-free environment. Tumors subcutaneously passaged in nude mice were excised under sterile conditions and converted to a single cell suspension using a metal grid with a 0.4 mm mesh. Red blood cells were lysed by incubation with 0.17M ammonium chloride at 4° C. for 20 minutes. Cells were scored for viability with trypan blue. Viable CX-1 cells (2.5 million) made up in 0.1 ml of cell culture medium were injected subcutaneously into each nude mouse. The mice were randomly allocated into a control group (five mice) and a treatment group (five mice per group). The drug treatment was commenced the next day. Doses and schedules were developed empirically and were based mainly on information on LD50 and LD10 obtained from preliminary toxicity studies. The control group received an equivalent volume of hydroxylpropyl-β-cyclodextrin-5% glucose solution.
The pharmaceutical compositions tested comprised solutions in 5% glucose subjected to sonication at concentrations of 1 mg/ml. Those compounds which were not completely dissolved by this procedure were dissolved in hydroxypropyl-β-cyclodextrin using the following method. Hydroxypropyl-β-cyclodextrin (45 g) was mixed with 100 ml of sterilized, double distilled water and stirred for four hours. Each of the compounds to be tested (20 mg) was mixed with 10 ml of hydroxypropyl-β-cyclodextrin solution and sonicated for 60 minutes in the dark. This solution was then diluted in 5% glucose to yield a final compound concentration of 0.5 mg/ml, and further sonicated for 60 minutes in the dark to assure that the compound was completely dissolved.
When the growth of tumors in the control group reached the exponential phase and the size of the tumor was palpable (usually 20 to 30 days after tumor implantation), the experiments were terminated. Tumors in each mouse were excised and weighed using an analytical balance. Total tumor weight in each group from five mice was calculated. Per cent tumor inhibition between the treated group and the control group was then calculated for each group.

In data set [2] the test system is human ovarian carcinoma OVCAR-3. The experiment in a line: Survival of nude mice implanted with human ovarian carcinoma OVCAR-3. The data set is classed as in vivo, human ovarian carcinoma in athymic Swiss nu/nu mice. The protocol: A human ovarian carcinoma cell line, OVCAR-3, was used. Ten million cells of this cell line were injected IP into ten athymic Swiss nu/nu mice. Ten mice into which these cancer cells had been injected were selected as a control group and received in equal volume of 5% dextrose as that of the treated group. The compounds of the General Formulas (1) to (6) which were tested and the results obtained are shown in Table IX below and in FIG. 7-9 of the accompanying drawings.

In the next data set the test system is human melanoma LOX. Kind of data set: Survival of nude mice implanted with human melanoma LOX. The data set is classed as in vivo, human melanoma in male athymic Swiss nu/nu mouse. As to conditions: Mus musculus, ip, 24 h, read-out: T/C (survival). The protocol: LOX, a human melanoma cell line, grown subcutaneously in nude mice was excised, trypsinized to yield a single cell suspension using a metal grid with a […]. Red blood cells were lysed by incubation with 0.17 molar ammonium chloride at 4° C. for 20 minutes. Five million viable trypan blue negative cells made up in 0.1 ml of Dulbecco modified Eagles' medium (DME) were injected into the peritoneal cavity of a male athymic Swiss nu/nu mouse. The control group and each treatment group consisted of 5 to 10 mice. Treatment was commenced the following day by intraperitoneal injection.
Ten control mice received 0.25 ml of 2% dextrose on those days the treated groups were injected with the compounds of this invention. The compounds of the General Formulas. (1) to (6) used in this invention which were tested are listed in Table VIII below and the results obtained are shown in Table VIII and FIG. 1-6 of the accompanying drawings. T/C is the ratio, expressed as a percentage of the mean survival age of the treated group to the mean survival age of the untreated control group.

Data set [3] relates to human colon carcinoma cell line CX-1. The experiment in a line: Colony formation assay, human colon carcinoma CX-1. As to conditions: for IC50: Homo sapiens, Colon carcinoma cell, 24 h treatment, colony count after 7 to 10 days; for Selectivity (ratio of IC50 for CV-1 and IC50 for CX-1): CV-1/CX-1. Format: cell-based.
Data set [4] deals with normal monkey kidney epithelial cell line CV-1. The experiment in a line: Colony formation assay, normal monkey kidney epithelial cells CV-1.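 Note: colonies visualized by crystal violet staining, incubation at 37 °C, IC50 relative to untreated wells given culture medium alone.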 As to conditions: Primates, Epithelial cell.
Method: Human colon carcinoma cell line CX-1 or normal monkey kidney epithelial cell line CV-1 was chosen as representatives of cancer cells and normal cells, respectively. […] CX-1 cells (2,000 cells/well) and CV-1 cells (1,000 cells/well) were plated in 24-well plastic culture plates. […] The control received culture media only. Cells were treated with compounds of General Formulas (1) to (6) at 37° C. for 24 hours. After rinsing with fresh culture medium three times, the cells were further incubated at 37° C. for 7 to 10 days. Cell colonies were fixed and stained with 2% crystal violet in 70% ethanol for 10 minutes and rinsed in water. […] The selectivity is defined as the ratio of IC50 for CV-1 and IC50 for CX-1.
The next data set deals with normal nude mice. The experiment in a line: Toxicity to normal nude mice.
Data set [5] has as its system human melanoma LOX cell line. The experiment in a line: Colony formation assay, human melanoma LOX. Format: cell-based. As to conditions: Table V; for IC50: Homo sapiens, LOX, 24 h, 24 h treatment, read-out: LOX (IC50); for Selectivity (CV-1 IC50 / LOX IC50): CV-1/LOX. The text has this: (§1) The control received culture media only.
Data set [6] has as its system human breast carcinoma MCF-7 cell line. The experiment in a line: Colony formation assay, human breast carcinoma MCF-7. Format: cell-based. As to conditions: Table VI; for IC50: Homo sapiens, MCF7, 24 h, 24 h treatment, read-out: MCF-7 (IC50); for Selectivity (CV-1 IC50 / MCF-7 IC50): CV-1/MCF-7.
Excerpt: as §1
The Selectivity values, MCF-7 values and CV-1 values for compounds of the General Formulas (1) to (6) used in the present invention are shown in Table VI below.

The subject of data set [7] is human pancreatic carcinoma CRL 1420 cell line. The experiment in a line: Colony formation assay, human pancreatic carcinoma CRL 1420. Format: cell-based. As to conditions: Table VII; for IC50: Homo sapiens, 24 h, 24 h treatment; for Selectivity (CV-1 IC50 / CRL-1420 IC50): CV-1/CRL-1420.
Excerpt: as §1
The Selectivity values, CRL 1420 values and CV-1 values for compounds of the General Formulas (1) to (6) used in the present invention are shown in Table VII below.

Data set [8] concerns human bladder carcinoma EJ cell line. The experiment in a line: Colony formation assay, human bladder carcinoma EJ. Format: cell-based. As to conditions: Table IV; for IC50: Homo sapiens, EJ, 24 h, 24 h treatment, read-out: EJ (IC50); for Selectivity (CV-1 IC50 / EJ IC50): CV-1/EJ.
Excerpt: as §1

Setting [9] is: read-out: CV-1 (IC50), Table III, 24 h treatment, colony count after 7 to 10 days.
Setting [10] is: Table III, read-out: CX-1 (IC50).
Setting [11] is: read-out: CV-1 (IC50), Table IV.
Setting [12] is: read-out: CV-1 (IC50), Table VI.
Setting [13] is: read-out: CV-1 (IC50), Table VII.

Where two headings read alike, the source gives them in different places.

As a reminder, the inhibition in vivo is the relative decrease from the control value, in per cent. Consider `CCN1CCSC1=CC=c1sc(=Cc2sc3c4ccccc4ccc3[n+]2CC)n(CC)c1=O` [Compound 116], for which the inhibition in vivo at 5 mg/kg in [1] (5 mg/kg, i.p. on day 1, 6, 10, 14, 19, 23) is 77%. For the same molecule, in data set [2] (5 mg/kg, i.p. on day 1, 5, 9, 14, 19, 23, 27, 48), the “T/C (survival)” value is on record as greater than 378%. In addition, in the data set with human melanoma LOX (5 mg/kg, i.p. on day 1, 5, 9, 13, 17, 22), the response vs control in vivo at 5 mg/kg was 582%.
What is called IC50 is the concentration that gives 50% inhibition. For the molecule `CCN1C(=CC=c2sc(=Cc3cc[n+](CC)c4ccccc34)n(CC)c2=O)C=Cc2ccccc21` [Compound 247], the inhibition in vivo at 20 mg/kg in data set [1] (i.p. on day 1, 5, 11, 15, 20, 26, 34) came out at 75%. Also, the concentration for half-maximal inhibition (IC50) in [3] (read-out: CX-1 (IC50), Table III) turned out to be 0.1 µg/mL; in data set [4] (setting [9]) it was 20 µg/mL. Also, in data set [3] (Table III), the “Selectivity (ratio of IC50 for CV-1 and IC50 for CX-1)” value is on record as 200. Moreover, the “T/C (survival)” value in [2] (20 mg/kg, i.p. on day 1, 5, 9, 14, 23, 48) was greater than 378%. In addition, the response vs control in vivo at 20 mg/kg with human melanoma LOX (i.p. on day 1, 2, 3, 4, 8, 9) was determined as 227%.
Consider `CCN1C(=CC=c2sc(=Cc3sc4c([n+]3CC)CCCC4)n(CC)c2=O)Oc2ccccc21` [Compound A, reference compound], for which, in the data set on normal nude mice, the “toxicity to normal nude mice” value was “less toxic to normal nude mice”. Also, the results for the IC50 in data set [3] (setting [10]) and in data set [4] (setting [9]) were 0.04 µg/mL and 2 µg/mL, respectively.
Regarding `CCN1/C(=C/C=C/c2sc3c4ccccc4ccc3[n+]2CC)Sc2c1ccc1ccccc21` [C, reference compound], in the data set with normal nude mice, the “toxicity to normal nude mice” value is given as “highly toxic to normal nude mice”. The results for the IC50 in data set [3] (setting [10]) and in data set [4] (setting [9]) were 0.05 µg/mL and less than 0.1 µg/mL, respectively.
`C=CCn1c(=Cc2sc3c4ccccc4ccc3[n+]2CC)sc(=CC=C2C=CN(CC)c3ccccc32)c1=O` [Compound 290]: the results for the IC50 in data set [3] (setting [10]) and in data set [4] (setting [9]) were 0.025 µg/mL and 2.5 µg/mL, respectively. Besides, in data set [3] (Table III), the “Selectivity (ratio of IC50 for CV-1 and IC50 for CX-1)” value was found to be 100. For the same molecule, in data set [2] (2 mg/kg, i.p. on day 1, 5, 9, 18, 48), the “T/C (survival)” value is 356%.
With `CCN1C(=CC=c2sc(=Cc3sc4c5ccccc5ccc4[n+]3CC)n(C)c2=O)Sc2ccc3ccccc3c21` [Compound 45], the IC50 was 0.07 µg/mL in data set [5]; 0.06 µg/mL in data set [6]; 0.02 µg/mL in [3] (setting [10]); 20 µg/mL in data set [4] (setting [9]); 20 µg/mL in data set [4] (setting [11]); 20 µg/mL in data set [4] (read-out: CV-1 (IC50), Table V). In addition, the IC50 in data set [4] (setting [12]) stood at 20 µg/mL; in [4] (setting [13]), 20 µg/mL; in data set [7] it was 0.07 µg/mL; in [8], 0.05 µg/mL. Further, the “Selectivity (CV-1 IC50 / LOX IC50)” value in data set [5] is 286. In data set [6], the “Selectivity (CV-1 IC50 / MCF-7 IC50)” value is 333. The molecule further had an inhibition in vivo at 20 mg/kg in data set [1] (i.p. on day 1, 4, 7, 11, 15, 18) of 56.8%. Further, the “Selectivity (ratio of IC50 for CV-1 and IC50 for CX-1)” value in data set [3] (Table III) is 1000. The response vs control in vivo at 20 mg/kg in the data set with human melanoma LOX (i.p. on day 1, 2, 3, 6, 9, 13) is 137%. Moreover, the “Selectivity (CV-1 IC50 / CRL-1420 IC50)” value in data set [7] came to 286. Moreover, the “Selectivity (CV-1 IC50 / EJ IC50)” value in data set [8] is 400.
On to `CCN1/C(=C/C=C/c2sc3ccccc3[n+]2CC)Sc2ccccc21` [B, reference compound], for which, in the data set with normal nude mice, the “toxicity to normal nude mice” value is “highly toxic to normal nude mice”. Moreover, in data set [4] (setting [9]), the IC50 was determined as 0.6 µg/mL.
As to `CCN1C(=CC=c2sc(=Cc3sc4c5ccccc5ccc4[n+]3C)n(C)c2=O)Sc2ccc3ccccc3c21` [Compound 46], the IC50 is 0.064 µg/mL in [5]; 0.082 µg/mL in [6]; 0.05 µg/mL in data set [3] (setting [10]); 20 µg/mL in data set [4] (setting [9]); 20 µg/mL in data set [4] (setting [11]); 20 µg/mL in data set [4] (read-out: CV-1 (IC50), Table V). Also, the IC50 in [4] (setting [12]) is 20 µg/mL; in data set [4] (setting [13]), 20 µg/mL; in data set [7] it was 0.064 µg/mL; in data set [8] it was 0.082 µg/mL. Also, in data set [5], the “Selectivity (CV-1 IC50 / LOX IC50)” value is on record as 312. In addition, the “Selectivity (CV-1 IC50 / MCF-7 IC50)” value in data set [6] is reported as 244. In data set [1] (i.p. on day 1, 5, 7, 9), this molecule displayed an inhibition in vivo at 20 mg/kg of 60.1%. The “Selectivity (ratio of IC50 for CV-1 and IC50 for CX-1)” value in data set [3] (Table III) was 400. Besides, the response vs control in vivo at 20 mg/kg with human melanoma LOX (i.p. on day 1, 3, 6, 9, 13, 16) is 222%. Moreover, in data set [7], the “Selectivity (CV-1 IC50 / CRL-1420 IC50)” value is on record as 312. Also, the “Selectivity (CV-1 IC50 / EJ IC50)” value in data set [8] came to 244.

The record behind these values is US5861424A, “Composition and method for treating cancer” (priority 1995, dated 1999).
